Data as given in ChEMBL document CHEMBL1201862, “PubChem BioAssay data set” (2004).
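96-well plates; 48 h exposure; 5 concentrations. Endpoints by linear interpolation between flanking doses. Not reached: highest tested concentration assigned. GI50 is the concentration that inhibits growth by half.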 Active and inactive are the calls of the source. Rule as the data show it: active = GI50 up to about 1.1 µM and inactive = higher.

How the values were obtained:
Experiment in all cases: growth of human tumour cells (NCI), 48 h
BT-549 = test system: BT-549
DU-145 = test system: DU-145
Hs-578T = test system: Hs-578T
DMS-273 = test system: DMS-273
HOP-18 = test system: HOP-18
M19-MEL = test system: M19-MEL
SNB-78 = test system: SNB-78
XF498 = test system: XF498
RXF 631 = test system: RXF 631

## O=C(CCc1ccc(O)cc1)NCCc1cccc(O)c1
BT-549
  GI50: > 50 µM (inactive)
DU-145
  GI50: > 50 µM (inactive)
Hs-578T
  GI50: > 50 µM (inactive)

## Cc1c2ccncc2c(C)c2c1[nH]c1ccc(OCCN(C)C)cc12
DMS-273
  GI50: 0.0998 µM (active)
HOP-18
  GI50: 0.598 µM (active)
M19-MEL
  GI50: 0.582 µM (active)
SNB-78
  GI50: 1.13 µM (inactive)
XF498
  GI50: 0.807 µM (active)

## CCOC(=O)c1c(Cl)nc2ccccc2c1N=[N+]=[N-]
BT-549
  GI50: 16.4 µM (inactive)
Hs-578T
  GI50: 24.9 µM (inactive)

## CC(C)=CCC/C(C)=C/CC/C(C)=C/C(O)c1ccccc1 (configuration not stated)
M19-MEL
  GI50: 18.3 µM (inactive)
RXF 631
  GI50: 18 µM (inactive)
SNB-78
  GI50: 22.6 µM (inactive)

## O=C(O)/C(O)=C1/C=C(c2ccccc2)c2ccccc21
DMS-273
  GI50: 18.6 µM (inactive)
HOP-18
  GI50: 22 µM (inactive)
M19-MEL
  GI50: 22.2 µM (inactive)
RXF 631
  GI50: 28.6 µM (inactive)
SNB-78
  GI50: 31.4 µM (inactive)

## O=C(O)C(SC(=S)c1ccc(C(=S)SC(C(=O)O)c2ccccc2)cc1)c1ccccc1 (configuration not stated)
DMS-273
  GI50: 47.2 µM (inactive)
RXF 631
  GI50: > 100 µM (inactive)
SNB-78
  GI50: > 100 µM (inactive)
XF498
  GI50: > 100 µM (inactive)

## O=C(Nc1nccs1)c1c(O)nc2sccn2c1=O
DU-145
  GI50: > 10 µM (inactive)
Hs-578T
  GI50: > 10 µM (inactive)

## O=C(O)C1CC2C=CCC(C2)C1 (configuration not stated)
DMS-273
  GI50: > 100 µM (inactive)
HOP-18
  GI50: > 100 µM (inactive)
M19-MEL
  GI50: > 100 µM (inactive)
SNB-78
  GI50: > 100 µM (inactive)
XF498
  GI50: > 100 µM (inactive)

## CC1SC2=NC3=C(c4ccccc4C3=O)C(c3ccccc3Cl)N2C1=O (configuration not stated)
DMS-273
  GI50: > 100 µM (inactive)
M19-MEL
  GI50: > 100 µM (inactive)
RXF 631
  GI50: > 100 µM (inactive)
XF498
  GI50: > 100 µM (inactive)

## C[Si](C)(N[Si](C)(C)OCCc1ccccc1)OCCc1ccccc1
BT-549
  GI50: > 100 µM (inactive)
DU-145
  GI50: > 100 µM (inactive)

## COc1ccc(Nc2cnc3cc(N)ccc3n2)cc1OC
DMS-273
  GI50: 56.2 µM (inactive)
M19-MEL
  GI50: > 100 µM (inactive)
XF498
  GI50: 54.6 µM (inactive)

## C1=CCN(c2ccccc2)CC1
DMS-273
  GI50: > 100 µM (inactive)
HOP-18
  GI50: 63.5 µM (inactive)
RXF 631
  GI50: > 100 µM (inactive)
SNB-78
  GI50: 29.8 µM (inactive)
XF498
  GI50: 17.1 µM (inactive)

## COc1ccc(-c2cc(N3CCN(c4ccccc4)CC3)c(C#N)c(=O)o2)cc1
DMS-273
  GI50: 40 µM (inactive)
HOP-18
  GI50: 4.88 µM (inactive)
RXF 631
  GI50: 21.5 µM (inactive)
SNB-78
  GI50: 22.6 µM (inactive)
XF498
  GI50: 6.59 µM (inactive)

## CC(Cc1ccccc1)NC1=NCCO1 (configuration not stated)
Hs-578T
  GI50: 29.3 µM (inactive)

## O=C1CCCC1C(O)(C(F)(F)Cl)C(F)(F)Cl (configuration not stated)
BT-549
  GI50: > 10 µM (inactive)
DU-145
  GI50: > 10 µM (inactive)
Hs-578T
  GI50: > 10 µM (inactive)

## CC(=O)c1ccc(NC(=O)/C(CC(=O)/C=C/c2ccccc2)=N/NC(N)=S)cc1
BT-549
  GI50: > 100 µM (inactive)
Hs-578T
  GI50: > 100 µM (inactive)

## CCN1CCC(O)(c2ccc(O)cc2)C(C(=O)c2ccc(O)cc2)C1 (configuration not stated)
DU-145
  GI50: 27.6 µM (inactive)
Hs-578T
  GI50: 13.3 µM (inactive)

## COc1cc(C(=O)CC2OC(=O)C(Cl)=C2Cl)ccc1Cl (configuration not stated)
DMS-273
  GI50: > 100 µM (inactive)
HOP-18
  GI50: > 100 µM (inactive)
M19-MEL
  GI50: > 100 µM (inactive)
RXF 631
  GI50: > 100 µM (inactive)
SNB-78
  GI50: > 100 µM (inactive)
XF498
  GI50: > 100 µM (inactive)

## CSc1nc2c(nc(N)n2C2OCC(O)C(O)C2O)c(=O)[nH]1 (configuration not stated)
HOP-18
  GI50: > 100 µM (inactive)
M19-MEL
  GI50: > 100 µM (inactive)
RXF 631
  GI50: > 100 µM (inactive)
SNB-78
  GI50: > 100 µM (inactive)
XF498
  GI50: > 100 µM (inactive)

## N#CC(C#N)=C1CCC2C(=C(C#N)C#N)CCC12 (configuration not stated)
DMS-273
  GI50: > 100 µM (inactive)
M19-MEL
  GI50: > 100 µM (inactive)
RXF 631
  GI50: > 100 µM (inactive)
SNB-78
  GI50: > 100 µM (inactive)
XF498
  GI50: > 100 µM (inactive)

## C=C=C(Sc1ccccc1)C(C)(C)OC(C)=O
DU-145
  GI50: 27.2 µM (inactive)
HOP-18
  GI50: 20 µM (inactive)
M19-MEL
  GI50: 15.8 µM (inactive)
SNB-78
  GI50: 29.8 µM (inactive)

## O=C(C1=C(C(=O)c2ccccc2)SC2(S1)C(C(=O)c1ccccc1)=C(C(=O)c1ccccc1)Sc1c2ssc1=O)c1ccccc1
BT-549
  GI50: 80.4 µM (inactive)
DU-145
  GI50: 72.8 µM (inactive)
Hs-578T
  GI50: > 100 µM (inactive)

## CC(C)OP(=O)(OC(C)C)/C(F)=N/Nc1ccc([N+](=O)[O-])cc1
DMS-273
  GI50: > 100 µM (inactive)
M19-MEL
  GI50: > 100 µM (inactive)
XF498
  GI50: > 100 µM (inactive)

## CCc1ccc2nc(-c3ccc(O)cc3)sc2c1
BT-549
  GI50: 16.3 µM (inactive)
DU-145
  GI50: 15 µM (inactive)

## Cc1cc(C)c2c(O)cc(-c3cccc4ccccc34)nc2n1
BT-549
  GI50: 3.3 µM (inactive)
DU-145
  GI50: 2.71 µM (inactive)
Hs-578T
  GI50: 1.09 µM (active)

## Nc1ccc(S(=O)(=O)c2ccc(NCN3C(=O)NC(=O)C(=O)C3=O)cc2)cc1 [ALLANTODAPSONE]
BT-549
  GI50: > 100 µM (inactive)
Hs-578T
  GI50: > 100 µM (inactive)

## CC[n+]1c(-c2ccccc2)c2cc(N)ccc2c2ccc(N)cc21 [HOMIDIUM BROMIDE]
BT-549
  GI50: 1.14 µM (inactive)
DU-145
  GI50: 7.57 µM (inactive)
Hs-578T
  GI50: < 0.01 µM (active)
